{
  "source": "patent US20080026079A1",
  "about": "(priority 2006, published 2008)",
  "key": {"[1]": {"system": "canine intestinal inflammation", "assay": "Canine inflammatory bowel disease activity index (CIBDAI) around Adriamycin dosing", "type": "in vivo, dog", "parameters": "key to CIBDAI C. Vomiting: 0 = none; 1 = mild (1 episode/week); 2 = moderate (2-3 episodes/week); 3 = severe (>3 episodes/week); key to CIBDAI A. Attitude/activity / CIBDAI B. Appetite / CIBDAI E. Stool frequency: 0 = normal; 1 = slightly decreased; 2 = moderately decreased; 3 = severely decreased", "experimental": "(§1) The criteria used for the scoring in the table is found at the bottom of the table. Dogs in the study were given a “palliative” Adriamycin dosage (30 mg/m2, IV every 14 days). Symptoms related to intestinal inflammation are expected in fewer than 10% of treated dogs."}, "[2]": {"system": "canine intestinal inflammation", "assay": "Canine inflammatory bowel disease activity index (CIBDAI) around Adriamycin dosing", "type": "in vivo", "parameters": "key: 0 = normal; 1 = slightly soft faeces or faecal blood, mucus or both; 2 = very soft faeces; 3 = watery diarrhea", "conditions": "one line per dog", "experimental": "as §1"}, "fecal α-1PI": {"system": "fecal α-1PI", "assay": "Fecal alpha(1)-proteinase inhibitor ELISA following Adriamycin", "type": "in vivo, dog", "experimental": "Fecal alpha(1)-proteinase inhibitor (α-1PI) clearance is a reliable, noninvasive marker for protein-losing enteropathy in animals and canines. Furthermore, the canine gut is a good model for the human gut, so results of testing on dogs can be considered relevant to humans. In this example, a number of dogs were tested. Fecal samples were collected daily for 3 days following each Adriamycin administration. An ELISA was used to measure α-1PI concentrations in fecal extracts.\nFecal samples were available for analysis following both chemotherapy treatments from 13 dogs."}, "[3]": {"system": "canine intestinal inflammation", "assay": "Canine inflammatory bowel disease activity index (CIBDAI) around Adriamycin dosing", "type": "in vivo", "parameters": "key: 0 = normal; 1 = slightly decreased; 2 = moderately decreased; 3 = severely decreased", "conditions": "one line per dog", "experimental": "as §1"}, "[4]": {"system": "dogs with malignant tumors", "conditions": "cited from earlier work"}, "[5]": {"system": "hepatic demethylation capacity", "conditions": "dog, in vivo", "procedure": "A ^13C-aminopyrine demethylation blood test was performed in 16 dogs before and after undergoing chemotherapy with doxorubicin for malignant neoplasia. A baseline blood sample of 1 ml was taken, followed by intravenous injection of 2 mg/kg ^13C-aminopyrine and collection of another 1 ml blood sample at 45 minutes after ^13C-aminopyrine administration. Blood samples were immediately placed into vacutainer tubes containing 2 ml of 6M hydrochloric acid and the percent dose of the ^13C administered as ^13C-aminopyrine was determined based on fractional mass spectrometry. […] A p-value <0.05 was considered statistically significant."}, "[6]": {"system": "chemotherapy-induced diarrhea", "conditions": "41 5-FU-treated patients; standard-dose loperamide; cited from earlier work"}, "[7]": {"system": "irinotecan-induced diarrhea", "conditions": "irinotecan weekly 125 mg/m^2; strict adherence to high-dose loperamide; fell from 56; cited from earlier work"}, "[8]": {"system": "diarrhea following chemotherapy in dogs", "conditions": "dog, in vivo", "procedure": "32 dogs presented with diarrhea following the administration of a chemotherapy agent such as doxorubicin, cytoxan, vincristine, lomustine, and others for a minimum period of 48 hours. CASAD in 500 mg tables was given orally to the cancer-treated dogs four times a day (q.i.d.). Other pharmaceutical agents or medications, as shown below, were also administered to certain dogs according to Best Clinical Practices, using usual, customary dosing. To the extent permitted by scheduling, CASAD and the other medication were given concurrently."}, "[9]": {"system": "pregnant Sprague-Dawley rats", "assay": "Dietary clay toxicity and trace metal bioavailability in pregnant rats", "conditions": "rat, in vivo", "experimental": "In animal studies with calcium montmorillonite clay, no adverse effects from clay treatment, at levels up to 2.0% (w/w) in the diet, have been reported. In recent studies in rodents, calcium montmorillonite clay were evaluated for potential toxicity and trace metal bioavailability in pregnant Sprague-Dawley rats throughout the period of gestation following high level exposure in the diet (2.0% w/w). Clays were supplemented in the balanced diet of Sprague-Dawley rats during pregnancy at a level of 2.0% (w/w). Evaluations of toxicity were performed on gestation day 16 and included maternal body weights, maternal feed intakes, litter weights, in addition to embryonic resorptions. Liver and, kidneys, tibia, brain, uterus, pooled placental, and pooled embryonic mass were collected and weighed. Tissue were lyophilized and neutron activation analysis (NAA) was then performed. Elements considered by NAA included: Al, Br, Ca, Ce, Co, Cr, Cs, Cu, Dy, Eu, Fe, Hf, K, La, Lu, Mg, Mn, Na, Nd, Ni, Rb, S, Sb, Sc, Se, Sm, Sr, Ta, Th, Te, Th, Ti, Tl, U, V, Yb, Zn, and Zr. Inductively coupled plasma-mass spectroscopy further confined that Al was below detection limits (0.5 ppm) in the brain, indicating no significant bioavailability of this metal from clay interactions in the GI tract. […]"}},
  "note": "“And” between values parts separate entries of the source, which are not always exact repeats. Equal entries are not always repeated. “Also recorded” adds a separate entry of the source.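 Wherever m α-1PI - pd. 1 is given: unit µg per g of feces.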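 Wherever m α-1PI - pd. 2 is given: unit µg per g of feces.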",
  "data": [
    {"compound": "Cc1ncc([N+](=O)[O-])n1CCO", "note": "[Flagyl, metronidazole]", "values": [
      {"measurement": "time to resolution of diarrhea", "setting": "[1]; Dog 2, diarrhea started Day 21 after Adria 2", "result": "with Flagyl, resolved in 2 days"}
    ]},
    {"compound": "COc1cccc2c1C(=O)c1c(O)c3c(c(O)c1C2=O)C[C@@](O)(C(=O)CO)C[C@@H]3O[C@H]1C[C@H](N)[C@H](O)[C@H](C)O1", "note": "[doxorubicin]", "values": [
      {"measurement": "CIBDAI D. Stool consistency", "setting": "[2]; Post Adria 1", "result": "D.3 and D.1 and D.2"},
      {"measurement": "CIBDAI D. Stool consistency", "setting": "[2]; Post Adria 2", "result": "D.2 and D.3"},
      {"measurement": "CIBDAI D. Stool consistency", "setting": "[2]; Pre Adria 2", "result": "D.1"},
      {"measurement": "fecal α-1PI concentrations, comparison of the two treatments", "setting": "fecal α-1PI; 13 dogs", "result": "not significantly different"},
      {"measurement": "m α-1PI - pd. 1", "setting": "fecal α-1PI; one line per dog, fecal samples 3 days following first Adriamycin administration", "result": "0 micro g/g of feces (5×) and 9.38 micro g/g of feces and 1.38 micro g/g of feces and 2.83 micro g/g of feces and 0.7 micro g/g of feces and 4.2 micro g/g of feces and 6.85 micro g/g of feces and 0.47 micro g/g of feces and 13.23 micro g/g of feces"},
      {"measurement": "m α-1PI - pd. 2", "setting": "fecal α-1PI; one line per dog, fecal samples 3 days following second Adriamycin administration", "result": "21.29 micro g/g of feces and 0 micro g/g of feces (3×) and 3.76 micro g/g of feces and 1.34 micro g/g of feces and 1.7 micro g/g of feces and 0.85 micro g/g of feces and 0.53 micro g/g of feces and 14.26 micro g/g of feces and 4.57 micro g/g of feces and 1.83 micro g/g of feces and 1.3 micro g/g of feces"},
      {"measurement": "CIBDAI D. Stool consistency", "setting": "[3]; Post Adria 1", "result": "D.0"},
      {"measurement": "CIBDAI D. Stool consistency", "setting": "[3]; Post Adria 2", "result": "D.0"},
      {"measurement": "CIBDAI D. Stool consistency", "setting": "[3]; Pre Adria 2", "result": "D.0"},
      {"measurement": "dogs that died as a direct result of doxorubicin-induced toxicosis", "setting": "[4]; 185 dogs, 30 mg/m^2 iv once or twice at 21-day interval", "result": 7, "unit": "dogs"},
      {"measurement": "likelihood of toxicosis after second dose in dogs with signs after first dose", "setting": "[4]; dog, in vivo", "result": 17.2, "unit": "times"},
      {"measurement": "mean ±SD clearance at 45 minutes after 13C-aminopyrine administration", "setting": "[5]", "result": "0.09562±0.0074"},
      {"measurement": "CIBDAI A. Attitude/activity", "setting": "[1]; Post Adria 1, 30 mg/m2 IV every 14 days, one line per dog", "result": "A.0 (11×) and A.1 (2×)"},
      {"measurement": "CIBDAI B. Appetite", "setting": "[1]; Post Adria 1, one line per dog", "result": "B.0 (11×) and B.2 (2×)"},
      {"measurement": "CIBDAI C. Vomiting", "setting": "[1]; Post Adria 1, one line per dog", "result": "C.1 (1 = mild (1 episode/week)) (2×) and C.0 (9×) and C.2 (2 = moderate (2-3 episodes/week)) (2×)"},
      {"measurement": "CIBDAI E. Stool frequency", "setting": "[1]; Post Adria 1, one line per dog", "result": "E.0 (11×) and E.2 (2 = moderately increased (4-5 times/day)) and E.1 (1 = slightly increased (2-3 times/day))"},
      {"measurement": "CIBDAI A. Attitude/activity", "setting": "[1]; Post Adria 2, one line per dog", "result": "A.0 (10×) and A.3 and A.2 and A.1"},
      {"measurement": "CIBDAI B. Appetite", "setting": "[1]; Post Adria 2, one line per dog", "result": "B.0 (9×) and B.2 (2×) and B.3 and B.1"},
      {"measurement": "CIBDAI C. Vomiting", "setting": "[1]; Post Adria 2, one line per dog", "result": "C.0 (11×) and C.1 (1 = mild (1 episode/week)) (2×)"},
      {"measurement": "CIBDAI E. Stool frequency", "setting": "[1]; Post Adria 2, one line per dog", "result": "E.2 (2 = moderately increased (4-5 times/day)) (2×) and E.0 (11×)"},
      {"measurement": "CIBDAI A. Attitude/activity", "setting": "[1]; Pre Adria 2, one line per dog", "result": "A.0"},
      {"measurement": "CIBDAI B. Appetite", "setting": "[1]; Pre Adria 2, one line per dog", "result": "B.0 (12×) and B.1"},
      {"measurement": "CIBDAI C. Vomiting", "setting": "[1]; Pre Adria 2, one line per dog", "result": "C.0"},
      {"measurement": "CIBDAI E. Stool frequency", "setting": "[1]; Pre Adria 2, one line per dog", "result": "E.0"},
      {"measurement": "CIBDAI F. Weight loss", "setting": "[1]; Pre Adria 2, one line per dog", "result": "F.0"},
      {"measurement": "observations noted per dog after Adriamycin", "setting": "[1]; notes under the dog's scores, listed as Adria", "result": "Day 21 - Lethargic for 1 week after; also recorded: Day 21 - Owner reported dumpty for 3 days post Adria #2; also recorded: Day 21 - Diarrhea started, treated; also recorded: Patient was euthanized 5 days after initial; also recorded: Day 7 - Diarrhea,; also recorded: Day 21 - Diarrhea for 3 days,; also recorded: Adria #2 delayed due to vomiting, diarrhea,"}
    ]},
    {"compound": "CN(C)C(=O)C(CCN1CCC(O)(c2ccc(Cl)cc2)CC1)(c1ccccc1)c1ccccc1", "note": "[loperamide]", "values": [
      {"measurement": "resolution of diarrhea by day three", "setting": "[6]", "result": 15, "unit": "%"},
      {"measurement": "prevalence of grade ¾ diarrhea", "setting": "[7]", "result": 9, "unit": "%"}
    ]},
    {"compound": "C[C@@H](O)[C@@H]1NC(=O)[C@H](CCCCN)NC(=O)[C@@H](Cc2c[nH]c3ccccc23)NC(=O)[C@H](Cc2ccccc2)NC(=O)[C@@H](NC(=O)[C@H](N)Cc2ccccc2)CSSC[C@@H](C(=O)N[C@H](CO)[C@@H](C)O)NC1=O", "note": "[octreotide]", "values": [
      {"measurement": "resolution of diarrhea by day three", "setting": "[6]", "result": 90, "unit": "%"}
    ]},
    {"compound": "calcium aluminosilicate [CASAD]", "values": [
      {"measurement": "1 = interaction 0 = noninteraction", "setting": "[8]", "result": 0},
      {"measurement": "dogs with interaction", "setting": "[8]", "result": 0},
      {"measurement": "negative interactions (anorexia, vomiting, nausea, lethargy, anaphylaxis) with additional drugs", "setting": "[8]", "result": "No negative interactions"}
    ]},
    {"compound": "calcium montmorillonite clay", "values": [
      {"measurement": "Al in the brain (ICP-MS)", "setting": "[9]", "result": "< 0.5", "unit": "ppm"},
      {"measurement": "brain Rb", "setting": "[9]", "result": "decreased brain Rb"}
    ]}
  ]
}
